Laboratory results from ChEMBL document CHEMBL5385931, “Microascones, Decahydrofluorene-Class Alkaloids from the Marine-Derived Fungus Microascus sp. SCSIO 41821” (J Nat Prod, 2024).
≈ marks a conversion by molar mass, not a printed value.

How the values were obtained:
Staphylococcus aureus [1] = test: Antibacterial activity against methicillin-resistant Staphylococcus aureus SC41993 assessed as bacterial growth inhibition by broth microdilution method; format: functional
Dickeya chrysanthemi = test: Antibacterial activity against Dickeya chrysanthemi SC41999 assessed as bacterial growth inhibition by broth microdilution method; format: functional
Staphylococcus aureus [2] = test: Antibacterial activity against Staphylococcus aureus ATCC 6538 assessed as bacterial growth inhibition by broth microdilution method; format: functional
Streptococcus iniae = test: Antibacterial activity against Streptococcus iniae SC41992 assessed as bacterial growth inhibition by broth microdilution method; format: functional
Bacillus subtilis = test: Antibacterial activity against Bacillus subtilis BS01 assessed as bacterial growth inhibition by broth microdilution method; format: functional
[3] = test system: Bacillus amyloliquefaciens; test: Antibacterial activity against Bacillus amyloliquefaciens GDMCC 60233 assessed as bacterial growth inhibition by broth microdilution method; format: functional
Escherichia coli = test: Antibacterial activity against Escherichia coli ATCC 25922 assessed as bacterial growth inhibition by broth microdilution method; format: functional
Paracidovorax citrulli = test: Antibacterial activity against Acidovorax citrulli SC42000 assessed as bacterial growth inhibition by broth microdilution method; format: functional
Streptococcus agalactiae = test: Antibacterial activity against Streptococcus agalactiae ATCC 13813 assessed as bacterial growth inhibition by broth microdilution method; format: functional
Pseudomonas aeruginosa = test: Antibacterial activity against Pseudomonas aeruginosa ATCC 9027 assessed as bacterial growth inhibition by broth microdilution method; format: functional
Candida albicans = test: Antifungal activity against Candida albicans assessed as fungal growth inhibition; format: functional
[4] = biological target: T1, M-phase inducer phosphatase 2 (Homo sapiens, UniProt P30305); test: Inhibition of human CDC25B
T1 sequence (P30305 whole entry): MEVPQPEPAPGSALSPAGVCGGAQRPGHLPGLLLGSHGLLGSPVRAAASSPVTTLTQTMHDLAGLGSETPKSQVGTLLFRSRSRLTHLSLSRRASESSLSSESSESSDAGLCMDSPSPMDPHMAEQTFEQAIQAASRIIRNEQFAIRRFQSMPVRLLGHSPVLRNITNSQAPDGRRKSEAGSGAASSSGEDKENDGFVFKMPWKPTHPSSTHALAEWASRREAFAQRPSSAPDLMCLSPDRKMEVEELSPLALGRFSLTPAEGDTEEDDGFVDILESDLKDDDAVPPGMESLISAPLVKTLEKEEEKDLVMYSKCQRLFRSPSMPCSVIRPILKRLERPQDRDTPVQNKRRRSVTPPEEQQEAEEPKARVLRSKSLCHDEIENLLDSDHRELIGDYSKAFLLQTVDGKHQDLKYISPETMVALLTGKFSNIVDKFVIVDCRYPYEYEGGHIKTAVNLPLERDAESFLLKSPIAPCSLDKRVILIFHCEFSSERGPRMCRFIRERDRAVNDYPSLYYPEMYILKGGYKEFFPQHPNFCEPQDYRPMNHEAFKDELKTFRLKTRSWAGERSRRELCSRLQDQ

[5] = biological target: T2, Tyrosine-protein phosphatase non-receptor type 1 (Homo sapiens, UniProt P18031); test: Inhibition of human PTP1B
T2 sequence (P18031 whole entry): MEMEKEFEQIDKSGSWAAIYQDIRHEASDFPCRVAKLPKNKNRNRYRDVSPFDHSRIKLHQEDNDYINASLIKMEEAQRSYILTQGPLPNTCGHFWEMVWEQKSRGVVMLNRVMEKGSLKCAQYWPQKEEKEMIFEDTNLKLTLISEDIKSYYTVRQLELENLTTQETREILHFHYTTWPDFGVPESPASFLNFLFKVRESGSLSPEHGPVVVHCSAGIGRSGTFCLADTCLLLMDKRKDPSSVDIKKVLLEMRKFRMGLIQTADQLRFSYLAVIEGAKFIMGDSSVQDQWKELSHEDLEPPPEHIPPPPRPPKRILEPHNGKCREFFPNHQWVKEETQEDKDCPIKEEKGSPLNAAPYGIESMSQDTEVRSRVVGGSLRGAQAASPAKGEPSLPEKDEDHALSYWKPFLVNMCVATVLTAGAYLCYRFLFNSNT

[6] = biological target: Dual specificity protein phosphatase 3 (Homo sapiens, UniProt P51452); test: Inhibition of human VHR
Chain of Dual specificity protein phosphatase 3 (P51452 whole entry): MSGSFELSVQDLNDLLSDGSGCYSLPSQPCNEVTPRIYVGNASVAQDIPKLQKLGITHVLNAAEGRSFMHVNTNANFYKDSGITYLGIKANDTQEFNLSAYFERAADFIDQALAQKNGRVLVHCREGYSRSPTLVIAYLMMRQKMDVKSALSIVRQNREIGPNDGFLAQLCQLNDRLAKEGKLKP

Micrococcus luteus = test: Antibacterial activity against Micrococcus luteus SC41991 assessed as bacterial growth inhibition by broth microdilution method; format: functional
[7] = biological target: Receptor-type tyrosine-protein phosphatase F (Homo sapiens, UniProt P10586); test: Inhibition of human LAR
Chain of Receptor-type tyrosine-protein phosphatase F (P10586 whole entry): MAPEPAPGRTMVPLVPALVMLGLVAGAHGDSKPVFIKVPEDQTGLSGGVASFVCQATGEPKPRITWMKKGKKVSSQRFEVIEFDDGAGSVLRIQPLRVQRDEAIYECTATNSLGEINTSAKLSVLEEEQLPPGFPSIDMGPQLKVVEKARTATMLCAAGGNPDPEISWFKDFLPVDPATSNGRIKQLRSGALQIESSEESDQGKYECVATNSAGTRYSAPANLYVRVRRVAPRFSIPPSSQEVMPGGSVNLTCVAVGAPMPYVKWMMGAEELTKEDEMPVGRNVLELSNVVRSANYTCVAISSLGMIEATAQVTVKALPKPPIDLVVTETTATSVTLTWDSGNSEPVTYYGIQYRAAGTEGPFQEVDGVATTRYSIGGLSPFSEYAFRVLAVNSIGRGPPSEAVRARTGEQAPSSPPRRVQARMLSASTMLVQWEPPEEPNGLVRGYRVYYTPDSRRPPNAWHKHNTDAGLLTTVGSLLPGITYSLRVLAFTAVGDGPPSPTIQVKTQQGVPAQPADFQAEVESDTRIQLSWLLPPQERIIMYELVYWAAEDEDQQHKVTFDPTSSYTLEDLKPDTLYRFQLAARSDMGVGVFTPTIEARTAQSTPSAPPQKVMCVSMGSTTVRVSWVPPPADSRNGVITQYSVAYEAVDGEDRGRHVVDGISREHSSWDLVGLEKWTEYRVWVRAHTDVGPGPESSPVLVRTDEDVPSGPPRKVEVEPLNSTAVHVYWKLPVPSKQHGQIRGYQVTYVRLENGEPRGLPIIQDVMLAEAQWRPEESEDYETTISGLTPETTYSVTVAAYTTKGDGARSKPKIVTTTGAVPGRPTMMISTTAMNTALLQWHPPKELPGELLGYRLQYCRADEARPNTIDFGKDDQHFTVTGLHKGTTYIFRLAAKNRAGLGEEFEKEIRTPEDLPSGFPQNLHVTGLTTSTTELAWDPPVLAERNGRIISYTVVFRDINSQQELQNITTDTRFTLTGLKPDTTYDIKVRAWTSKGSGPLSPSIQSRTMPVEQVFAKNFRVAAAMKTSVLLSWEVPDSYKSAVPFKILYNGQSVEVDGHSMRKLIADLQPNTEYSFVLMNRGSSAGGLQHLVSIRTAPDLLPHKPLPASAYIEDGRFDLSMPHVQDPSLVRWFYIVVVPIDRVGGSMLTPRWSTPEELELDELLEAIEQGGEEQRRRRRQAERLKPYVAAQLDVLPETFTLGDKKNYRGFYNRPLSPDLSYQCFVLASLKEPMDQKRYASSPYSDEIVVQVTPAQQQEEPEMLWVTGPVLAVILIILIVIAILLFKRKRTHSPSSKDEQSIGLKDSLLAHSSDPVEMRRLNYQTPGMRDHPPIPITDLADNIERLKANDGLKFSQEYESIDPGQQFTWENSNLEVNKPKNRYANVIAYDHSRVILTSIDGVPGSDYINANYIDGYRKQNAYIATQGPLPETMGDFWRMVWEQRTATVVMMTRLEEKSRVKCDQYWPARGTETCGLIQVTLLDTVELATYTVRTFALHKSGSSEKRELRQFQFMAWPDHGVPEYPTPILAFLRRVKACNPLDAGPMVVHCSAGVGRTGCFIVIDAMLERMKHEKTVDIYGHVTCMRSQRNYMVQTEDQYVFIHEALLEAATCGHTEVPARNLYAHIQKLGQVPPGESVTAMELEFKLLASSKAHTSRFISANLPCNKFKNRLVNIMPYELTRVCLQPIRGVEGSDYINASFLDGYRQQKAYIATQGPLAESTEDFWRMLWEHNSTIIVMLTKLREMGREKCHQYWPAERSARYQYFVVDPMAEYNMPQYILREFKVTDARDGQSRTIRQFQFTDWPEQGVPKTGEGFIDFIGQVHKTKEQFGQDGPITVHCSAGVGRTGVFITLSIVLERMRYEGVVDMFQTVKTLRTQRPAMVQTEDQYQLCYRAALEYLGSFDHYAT

NCI-H1975 = test: Cytotoxicity against human NCI-H1975 cells assessed as cell growth inhibition by CCK8 assay
HepG2 = test: Cytotoxicity against human HepG2 cells assessed as cell growth inhibition by CCK8 assay

GENTAMICIN SULFATE
MIC (Staphylococcus aureus [1]): 0.62 mg/L
MIC (Dickeya chrysanthemi): 0.1 mg/L
MIC (Staphylococcus aureus [2]): 1.3 mg/L
MIC (Streptococcus iniae): 1.3 mg/L
MIC (Bacillus subtilis): 0.62 mg/L
MIC [3]: 0.62 mg/L
MIC (Escherichia coli): 0.62 mg/L
MIC (Paracidovorax citrulli): 0.1 mg/L
MIC (Streptococcus agalactiae): 0.62 mg/L

CC1=C[C@@]2(C)C(=C(C)[C@H]3[C@@H]4C[C@H](C)C[C@H](C)[C@H]4[C@H]4Oc5ccc(cc5)C[C@@H]5C(=O)NC(=O)[C@H]5C(=O)[C@@H]2[C@@H]43)[C@H]1C
MIC (Staphylococcus aureus [1]): 25 mg/L (≈ 47.4 µM)
MIC (Pseudomonas aeruginosa): > 100 mg/L
MIC (Dickeya chrysanthemi): > 100 mg/L
MIC (Staphylococcus aureus [2]): 100 mg/L (≈ 189 µM)
MIC (Streptococcus iniae): 50 mg/L (≈ 94.7 µM)
MIC (Bacillus subtilis): 50 mg/L (≈ 94.7 µM)
MIC (Candida albicans): > 100 mg/L
MIC [3]: 100 mg/L (≈ 189 µM)
IC50 [4]: > 200 µM
MIC (Escherichia coli): 100 mg/L (≈ 189 µM)
IC50 [5]: > 200 µM
IC50 [6]: > 200 µM
MIC (Micrococcus luteus): 13 mg/L (≈ 24.6 µM)
IC50 [7]: > 200 µM
MIC (Paracidovorax citrulli): > 100 mg/L
MIC (Streptococcus agalactiae): 50 mg/L (≈ 94.7 µM)

C=C/C(C)=C\[C@]1(C)C=C(C)[C@H]2[C@@H]3C[C@H](C)C[C@H](C)[C@H]3[C@H]3Oc4ccc(cc4)C[C@@H]4C(=O)NC(=O)[C@H]4C(=O)[C@@H]1[C@@H]32
MIC (Staphylococcus aureus [1]): > 100 mg/L
MIC (Staphylococcus aureus [2]): > 100 mg/L
MIC (Bacillus subtilis): 100 mg/L (≈ 189 µM)
IC50 (NCI-H1975): 35 µM
IC50 (HepG2): 73 µM
MIC (Escherichia coli): 100 mg/L (≈ 189 µM)
MIC (Streptococcus agalactiae): 50 mg/L (≈ 94.7 µM)

COC(=O)CC(=O)[C@@H]1[C@H]2[C@H](Oc3ccc(CC(N)=O)cc3)[C@H]3[C@@H](C[C@H](C)C[C@@H]3C)[C@@H]2C(C)=C2[C@@H](C)C(C)=C[C@@]21C
MIC (Staphylococcus aureus [1]): > 100 mg/L
MIC (Staphylococcus aureus [2]): > 100 mg/L
MIC (Streptococcus iniae): > 100 mg/L
MIC (Bacillus subtilis): 100 mg/L (≈ 183 µM)
MIC [3]: 100 mg/L (≈ 183 µM)
MIC (Escherichia coli): > 100 mg/L
MIC (Streptococcus agalactiae): 100 mg/L (≈ 183 µM)

CC1=C[C@@]2(C)C(=C(C)[C@H]3[C@@H]4C[C@H](C)C[C@H](C)[C@H]4[C@H]4Oc5ccc(cc5)C[C@@]5(O)C=C(C(=O)N5)C(=O)[C@H]2[C@@H]43)[C@H]1C
MIC (Staphylococcus aureus [1]): 0.4 mg/L (≈ 0.758 µM)
MIC (Pseudomonas aeruginosa): > 100 mg/L
MIC (Dickeya chrysanthemi): > 100 mg/L
MIC (Staphylococcus aureus [2]): 0.8 mg/L (≈ 1.52 µM)
MIC (Streptococcus iniae): 0.4 mg/L (≈ 0.758 µM)
MIC (Bacillus subtilis): 0.2 mg/L (≈ 0.379 µM)
MIC (Candida albicans): 25 mg/L (≈ 47.4 µM)
MIC [3]: 0.4 mg/L (≈ 0.758 µM)
MIC (Escherichia coli): 0.2 mg/L (≈ 0.379 µM)
MIC (Micrococcus luteus): 1.6 mg/L (≈ 3.03 µM)
MIC (Paracidovorax citrulli): > 100 mg/L
MIC (Streptococcus agalactiae): 0.4 mg/L (≈ 0.758 µM)

CO[C@@H]1/C2=C(\O)[C@H]3[C@H]4[C@H](Oc5ccc(cc5)C[C@]1(O)NC2=O)[C@H]1[C@@H](C[C@H](C)C[C@@H]1C)[C@@H]4C(C)=C1[C@@H](C)C(C)=C[C@@]13C
MIC (Staphylococcus aureus [1]): 0.2 mg/L (≈ 0.357 µM)
MIC (Pseudomonas aeruginosa): > 100 mg/L
MIC (Dickeya chrysanthemi): > 100 mg/L
MIC (Staphylococcus aureus [2]): 0.4 mg/L (≈ 0.715 µM)
MIC (Streptococcus iniae): 0.4 mg/L (≈ 0.715 µM)
MIC (Bacillus subtilis): 0.2 mg/L (≈ 0.357 µM)
MIC (Candida albicans): 13 mg/L (≈ 23.2 µM)
MIC [3]: 0.2 mg/L (≈ 0.357 µM)
MIC (Escherichia coli): 0.1 mg/L (≈ 0.179 µM)
MIC (Micrococcus luteus): 1.6 mg/L (≈ 2.86 µM)
MIC (Paracidovorax citrulli): > 100 mg/L
MIC (Streptococcus agalactiae): 0.2 mg/L (≈ 0.357 µM)

CC(=O)N1CCN(c2ccc(OCC3COC(Cn4ccnc4)(c4ccc(Cl)cc4Cl)O3)cc2)CC1 (centres undefined) [KETOCONAZOLE]
MIC (Candida albicans): 1.6 mg/L (≈ 3.01 µM)

CN[C@H](CC(C)C)C(=O)N[C@H]1C(=O)N[C@@H](CC(N)=O)C(=O)N[C@H]2C(=O)N[C@H]3C(=O)N[C@H](C(=O)N[C@H](C(=O)O)c4cc(O)cc(O)c4-c4cc3ccc4O)[C@H](O)c3ccc(c(Cl)c3)Oc3cc2cc(c3O[C@@H]2O[C@H](CO)[C@@H](O)[C@H](O)[C@H]2O[C@H]2C[C@](C)(N)[C@H](O)[C@H](C)O2)Oc2ccc(cc2Cl)[C@H]1O [VANCOMYCIN]
MIC (Staphylococcus aureus [1]): 2.5 mg/L (≈ 1.73 µM)
MIC (Dickeya chrysanthemi): 0.1 mg/L (≈ 0.069 µM)
MIC (Staphylococcus aureus [2]): 2.5 mg/L (≈ 1.73 µM)
MIC (Streptococcus iniae): 1.25 mg/L (≈ 0.863 µM)
MIC (Bacillus subtilis): 0.31 mg/L (≈ 0.214 µM)
MIC [3]: 0.31 mg/L (≈ 0.214 µM)
MIC (Escherichia coli): 0.31 mg/L (≈ 0.214 µM)
MIC (Micrococcus luteus): 1.25 mg/L (≈ 0.863 µM)
MIC (Paracidovorax citrulli): 0.1 mg/L (≈ 0.069 µM)
MIC (Streptococcus agalactiae): 2.5 mg/L (≈ 1.73 µM)
